Test results taken from PMC12799524, “Putative new biomarkers for renal transporter-mediated drug-drug interactions: Characterization as substrates of organic cation transporter 2, multidrug and toxin extrusion protein 1, and other important drug transporters” (Drug Metabolism and Disposition, 2025).
Each block holds one molecule with its values, some of them ahead of it.

Key:
[1] = target: T1, human OCT2 (Homo sapiens, UniProt O15244); test: Uptake assay in HEK-OCT2 vs HEK-VC cells; assay type: in vitro ADME; design: expressed in transfected cells; host or cells: HEK293 (HEK-OCT2)
T1 sequence (O15244 1-555): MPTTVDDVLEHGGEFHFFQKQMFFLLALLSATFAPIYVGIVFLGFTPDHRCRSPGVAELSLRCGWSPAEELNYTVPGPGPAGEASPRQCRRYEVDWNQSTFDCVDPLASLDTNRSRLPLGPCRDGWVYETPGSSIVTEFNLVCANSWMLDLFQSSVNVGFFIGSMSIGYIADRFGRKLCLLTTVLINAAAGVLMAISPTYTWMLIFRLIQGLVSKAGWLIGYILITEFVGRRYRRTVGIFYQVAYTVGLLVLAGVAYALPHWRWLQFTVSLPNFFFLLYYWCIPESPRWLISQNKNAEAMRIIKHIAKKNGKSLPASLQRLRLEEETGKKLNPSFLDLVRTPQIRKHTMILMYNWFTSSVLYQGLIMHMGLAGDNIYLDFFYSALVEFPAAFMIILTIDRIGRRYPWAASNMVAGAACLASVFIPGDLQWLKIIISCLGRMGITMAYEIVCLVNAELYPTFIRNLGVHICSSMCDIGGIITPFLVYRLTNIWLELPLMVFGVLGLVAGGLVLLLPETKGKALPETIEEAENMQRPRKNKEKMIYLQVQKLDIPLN
Method: (§1) Transport experiments were performed 48 hours after seeding.
(§2) The intracellular background of all 5 compounds in HEK cells at the beginning of the uptake experiments was investigated 48 hours after seeding without incubation with transport buffer (ie, 0 minutes). […] Then, cells were lysed with ice-cold 80% MeOH containing the aforementioned recovery standards. In addition, the impact of a 5-minute incubation period with transport buffer without added substance was investigated.

[2] = target: T2, MATE1 (Homo sapiens, UniProt Q96FL8); test: Uptake assay in HEK-MATE1 vs HEK-VC cells (pH 8.0); conditions: 0 minutes and 5 minutes without added substance
T2 sequence (Q96FL8 1-570): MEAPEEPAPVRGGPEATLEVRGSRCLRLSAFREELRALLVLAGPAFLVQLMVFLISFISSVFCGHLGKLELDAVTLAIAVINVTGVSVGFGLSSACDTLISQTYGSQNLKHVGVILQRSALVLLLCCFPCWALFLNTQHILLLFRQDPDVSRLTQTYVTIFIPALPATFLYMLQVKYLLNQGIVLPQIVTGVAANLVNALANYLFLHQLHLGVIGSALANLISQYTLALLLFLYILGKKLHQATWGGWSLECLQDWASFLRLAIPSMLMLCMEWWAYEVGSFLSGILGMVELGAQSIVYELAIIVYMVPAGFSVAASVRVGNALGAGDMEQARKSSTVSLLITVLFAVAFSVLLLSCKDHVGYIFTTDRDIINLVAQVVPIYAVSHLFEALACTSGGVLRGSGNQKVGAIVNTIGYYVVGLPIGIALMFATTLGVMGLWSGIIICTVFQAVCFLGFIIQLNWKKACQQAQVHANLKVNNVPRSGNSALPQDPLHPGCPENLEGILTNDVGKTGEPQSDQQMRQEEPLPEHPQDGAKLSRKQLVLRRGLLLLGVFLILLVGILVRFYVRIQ
Method: as §1, §2

[3] = substrate: NCCc1c[nH]c2ccc(O)cc12

- Intracellular background in HEK-OCT2 cells compared to HEK-VC cells ([1]; 0 minutes, without added substance): significantly higher
- Intracellular background in HEK-OCT2 cells compared to HEK-VC cells ([1]; 5 minutes in transport buffer without added substance): reduced to the amount in HEK-VC cells
- Intracellular background in HEK-MATE1 cells compared to HEK-VC cells [2]: significantly lower
Molecule: N=C(N)NCCCC(=O)O [4-Guanidinobutanoic acid, 4-guanidinobutanoic acid]

B1: human OCT2 (Homo sapiens) (protein)
chain: T1 sequence (O15244 1-555)
- Km [3]: 412.0 ± 143.6 µM
